Laboratory results reported in patent US20260325540A1 (priority 2023, published 2026).

Target: HCoV-229E 3CL protease (Human coronavirus 229E, UniProt P0C6U2)
Assay: FRET based protease assay, HCoV-229E 3CL
Format: biochemical
Conditions: 229E IC50, 6 nM H229E-CoV Chis-3CLpro, 6 μM peptide 1 substrate, 25° C., 1.5 hrs, pH 7.5

Sequence of HCoV-229E 3CL protease (P0C6U2 2966-3267): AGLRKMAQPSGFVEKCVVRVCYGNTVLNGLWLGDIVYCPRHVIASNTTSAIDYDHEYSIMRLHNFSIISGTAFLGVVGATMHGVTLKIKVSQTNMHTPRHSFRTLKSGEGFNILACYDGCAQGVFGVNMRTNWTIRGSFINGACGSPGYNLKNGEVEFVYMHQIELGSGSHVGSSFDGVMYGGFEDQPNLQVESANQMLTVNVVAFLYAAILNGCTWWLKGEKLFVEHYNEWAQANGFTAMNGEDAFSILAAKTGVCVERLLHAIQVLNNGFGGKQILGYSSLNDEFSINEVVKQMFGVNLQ

`CC(C)(C)C(=O)N[C@H]1CCCC[C@H]2CCNC(=O)[C@H]2C[C@@H](C#N)NC(=O)[C@@H]2[C@@H]3[C@H](CN2C1=O)C3(C)C` [Example 69] and `CC(C)(C)OC(=O)N[C@H]1CCCC[C@H]2CCNC(=O)[C@H]2C[C@@H](C#N)NC(=O)[C@@H]2[C@@H]3[C@H](CN2C1=O)C3(C)C` [Example 110] cannot be ordered by IC50: under 100 nM for the first, under 100 nM for the second.

`CC(C)(C)C(=O)N[C@H]1CCCC[C@H]2CNC(=O)[C@H]2C[C@@H](C#N)NC(=O)[C@@H]2[C@H]3CCC[C@H]3CN2C1=O` [Example 70] and `CC(C)(C)OC(=O)N[C@H]1CCCC[C@H]2CNC(=O)[C@H]2C[C@@H](C#N)NC(=O)[C@@H]2[C@H]3CCC[C@H]3CN2C1=O` [Example 79] cannot be ordered by IC50: under 100 nM for the first, under 100 nM for the second.

`CC(C)(C)C(=O)N[C@H]1CCCC[C@H]2CNC(=O)[C@H]2C[C@@H](C#N)NC(=O)[C@@H]2CCCCN2C1=O` [Example 71] and `CC(C)(C)C(=O)N[C@H]1CCCC[C@H]2CNC(=O)[C@H]2C[C@@H](C#N)NC(=O)[C@@H]2CCCN2C1=O` [Example 74] fall in the same range of IC50: 1000 to 20000 nM for the first, 1000 to 20000 nM for the second.

`CC(C)(C)OC(=O)N[C@H]1CCCC[C@H]2CNC(=O)[C@H]2C[C@@H](C#N)NC(=O)[C@@H]2[C@@H]3[C@H](CN2C1=O)C3(C)C` [Example 72] and `CC(C)(C)COC(=O)N[C@H]1CCCC[C@H]2CNC(=O)[C@H]2C[C@@H](C#N)NC(=O)[C@@H]2[C@@H]3[C@H](CN2C1=O)C3(C)C` [Example 106] cannot be ordered by IC50: under 100 nM for the first, under 100 nM for the second.

`CC(C)(C)CC(=O)N[C@H]1CCCC[C@H]2CNC(=O)[C@H]2C[C@@H](C#N)NC(=O)[C@@H]2[C@@H]3[C@H](CN2C1=O)C3(C)C` [Example 73] and `CC1(C)[C@@H]2[C@H]3C(=O)N[C@H](C#N)C[C@@H]4C(=O)NC[C@@H]4CCCC[C@H](NC(=O)C(F)(F)F)C(=O)N3C[C@@H]21` [Example 87] cannot be ordered by IC50: under 100 nM for the first, under 100 nM for the second.

`CC1(C)[C@@H]2[C@H]3C(=O)N[C@H](C#N)C[C@@H]4C(=O)NC[C@@H]4CCCC[C@H](NC(=O)OC4CCCC4)C(=O)N3C[C@@H]21` [Example 75] and `CC1(C)[C@@H]2[C@H]3C(=O)N[C@H](C#N)C[C@@H]4C(=O)NC[C@@H]4CCCC[C@H](NC(=O)C4CCCCC4)C(=O)N3C[C@@H]21` [Example 77] cannot be ordered by IC50: under 100 nM for the first, under 100 nM for the second.

`CC1(C)[C@@H]2[C@H]3C(=O)N[C@H](C#N)C[C@@H]4C(=O)NC[C@@H]4CCCC[C@H](NC(=O)C4CCC4)C(=O)N3C[C@@H]21` [Example 76] and `CC1(C)[C@@H]2[C@H]3C(=O)N[C@H](C#N)C[C@@H]4C(=O)NC[C@@H]4CCCC[C@H](NC(=O)C4CCOCC4)C(=O)N3C[C@@H]21` [Example 85] cannot be ordered by IC50: under 100 nM for the first, under 100 nM for the second.

`CN1C(=O)[C@@H](NC(=O)C(C)(C)C)CCCC[C@H]2CNC(=O)[C@H]2C[C@@H](C#N)NC(=O)[C@@H]1CC(C)(C)C` [Example 78] and `CC(C)(C)C(=O)N[C@H]1CCCC[C@H]2CNC(=O)[C@H]2C[C@@H](C#N)NC(=O)[C@H](C2CCCC2)NC1=O` [Example 80] fall in the same range of IC50: 100 to 1000 nM for the first, 100 to 1000 nM for the second.

`CC1(C)[C@@H]2[C@H]3C(=O)N[C@H](C#N)C[C@@H]4C(=O)NC[C@@H]4CCCC[C@H](NC(=O)C4CC5(CCC5)C4)C(=O)N3C[C@@H]21` (some centres unmarked) [Example 81] and `CC1(C(=O)N[C@H]2CCCC[C@H]3CNC(=O)[C@H]3C[C@@H](C#N)NC(=O)[C@@H]3[C@@H]4[C@H](CN3C2=O)C4(C)C)CCC1` [Example 118] cannot be ordered by IC50: under 100 nM for the first, under 100 nM for the second.

`CC1(C)[C@@H]2[C@H]3C(=O)N[C@H](C#N)C[C@@H]4C(=O)NC[C@@H]4CCCC[C@H](NC(=O)c4ccc(F)cc4)C(=O)N3C[C@@H]21` [Example 82] and `CC1(C)[C@@H]2[C@H]3C(=O)N[C@H](C#N)C[C@@H]4C(=O)NC[C@@H]4CCCC[C@H](NC(=O)c4ccc(F)cc4F)C(=O)N3C[C@@H]21` [Example 103] cannot be ordered by IC50: under 100 nM for the first, under 100 nM for the second.

`CC1(C)[C@@H]2[C@H]3C(=O)N[C@H](C#N)C[C@@H]4C(=O)NC[C@@H]4/C=C/CC[C@H](NC(=O)C4CC(F)(F)C4)C(=O)N3C[C@@H]21` [Example 83] and `CC1(C)[C@@H]2[C@H]3C(=O)N[C@H](C#N)C[C@@H]4C(=O)NC[C@@H]4/C=C/CC[C@H](NC(=O)C(F)(F)F)C(=O)N3C[C@@H]21` [Example 108] cannot be ordered by IC50: under 100 nM for the first, under 100 nM for the second.

`N#C[C@@H]1C[C@@H]2C(=O)NC[C@@H]2CCCC[C@H](NC(=O)C2CC(F)(F)C2)C(=O)N2C[C@@H]3CCC[C@@H]3[C@H]2C(=O)N1` [Example 84] and `N#C[C@@H]1C[C@@H]2C(=O)NC[C@@H]2CCCC[C@H](NC(=O)C(F)(F)F)C(=O)N2C[C@@H]3CCC[C@@H]3[C@H]2C(=O)N1` [Example 88] cannot be ordered by IC50: under 100 nM for the first, under 100 nM for the second.

`CC(C)(C)C(=O)N[C@H]1CC/C=C/[C@H]2CNC(=O)[C@H]2C[C@@H](C#N)NC(=O)[C@@H]2[C@H]3CCC[C@H]3CN2C1=O` [Example 86] and `CC(C)(C)OC(=O)N[C@H]1CC/C=C/[C@H]2CNC(=O)[C@H]2C[C@@H](C#N)NC(=O)[C@@H]2[C@H]3CCC[C@H]3CN2C1=O` [Example 112] cannot be ordered by IC50: under 100 nM for the first, under 100 nM for the second.

`CC1(C)[C@@H]2[C@H]3C(=O)N[C@H](C#N)C[C@@H]4C(=O)NC[C@@H]4CCCC[C@H](NC(=O)CC4CC(F)(F)C4)C(=O)N3C[C@@H]21` [Example 89] and `CC1(C)[C@@H]2[C@H]3C(=O)N[C@H](C#N)C[C@@H]4C(=O)NC[C@@H]4CCCC[C@H](NC(=O)CC4CCCC4)C(=O)N3C[C@@H]21` [Example 90] cannot be ordered by IC50: under 100 nM for the first, under 100 nM for the second.

`CC1(C)[C@@H]2[C@H]3C(=O)N[C@H](C#N)C[C@@H]4C(=O)NC[C@@H]4CCCC[C@H](NC(=O)c4ccncn4)C(=O)N3C[C@@H]21` [Example 91] and `CC1(C)[C@@H]2[C@H]3C(=O)N[C@H](C#N)C[C@@H]4C(=O)NC[C@@H]4CCCC[C@H](NC(=O)c4cncnc4)C(=O)N3C[C@@H]21` [Example 107] cannot be ordered by IC50: under 100 nM for the first, under 100 nM for the second.

`CC(C)(C)OC(=O)N[C@H]1CC/C=C/[C@H]2CNC(=O)[C@H]2C[C@@H](C#N)NC(=O)[C@@H]2[C@@H]3[C@H](CN2C1=O)C3(C)C` [Example 92] and `CC(C)(C)OC(=O)N[C@H]1CC/C=C\[C@H]2CCNC(=O)[C@H]2C[C@@H](C#N)NC(=O)[C@@H]2[C@@H]3[C@H](CN2C1=O)C3(C)C` [Example 114] cannot be ordered by IC50: under 100 nM for the first, under 100 nM for the second.

`N#C[C@@H]1C[C@@H]2C(=O)NCC[C@@H]2CCCC[C@H](NC(=O)OC2CCCC2)C(=O)N2C[C@@H]3CCC[C@@H]3[C@H]2C(=O)N1` [Example 93] and `N#C[C@@H]1C[C@@H]2C(=O)NC[C@@H]2CCCC[C@H](NC(=O)OC2CCCC2)C(=O)N2C[C@@H]3CCC[C@@H]3[C@H]2C(=O)N1` [Example 94] cannot be ordered by IC50: under 100 nM for the first, under 100 nM for the second.

`CC(C)(C)CC(=O)N[C@H]1CCCC[C@H]2CCNC(=O)[C@H]2C[C@@H](C#N)NC(=O)[C@@H]2[C@H]3CCC[C@H]3CN2C1=O` [Example 95] and `CC(C)(C)OC(=O)N[C@H]1CCCC[C@H]2CCNC(=O)C2C[C@@H](C#N)NC(=O)[C@@H]2[C@H]3CCC[C@H]3CN2C1=O` (some centres unmarked) [Example 98] cannot be ordered by IC50: under 100 nM for the first, under 100 nM for the second.

First: CC(C)(C)OC(=O)N[C@H]1CC/C=C\[C@H]2CCNC(=O)[C@H]2CC(C#N)NC(=O)[C@@H]2[C@H]3CCC[C@H]3CN2C1=O (some centres unmarked) [Example 97]
Second: CC(C)(C)OC(=O)N[C@H]1CC/C=C/[C@H]2CCNC(=O)[C@H]2C[C@@H](C#N)NC(=O)[C@@H]2[C@H]3CCC[C@H]3CN2C1=O [Example 99]
The IC50 of the first is lower: under 100 nM for the first, 1000 to 20000 nM for the second. The first is the more potent here.

`CC(C)(C)OC(=O)N[C@H]1CCC[C@H]2CCNC(=O)[C@H]2C[C@@H](C#N)NC(=O)[C@@H]2[C@H]3CCC[C@H]3CN2C1=O` [Example 100] and `CC(C)(C)OC(=O)N[C@H]1CCCC[C@H]2CNC(=O)[C@H]2C[C@@H](C#N)NC(=O)[C@@H]2[C@H]3CC[C@H](CC3)N2C1=O` [Example 111] fall in the same range of IC50: 100 to 1000 nM for the first, 100 to 1000 nM for the second.

`N#C[C@@H]1C[C@@H]2C(=O)NC[C@@H]2/C=C/CC[C@H](NC(=O)C(F)(F)F)C(=O)N2C[C@@H]3CCC[C@@H]3[C@H]2C(=O)N1` [Example 101] and `CC1(C)[C@@H]2[C@H]3C(=O)N[C@H](C#N)C[C@@H]4C(=O)NCC[C@@H]4CCCC[C@H](NC(=O)C(F)(F)F)C(=O)N3C[C@@H]21` [Example 104] cannot be ordered by IC50: under 100 nM for the first, under 100 nM for the second.

`CC(C)(C)OC(=O)N[C@H]1COCCC[C@H]2CNC(=O)[C@H]2C[C@@H](C#N)NC(=O)[C@@H]2[C@@H]3[C@H](CN2C1=O)C3(C)C` [Example 102] and `Cc1cc(C(=O)N[C@H]2CCCC[C@H]3CNC(=O)[C@H]3C[C@@H](C#N)NC(=O)[C@@H]3[C@@H]4[C@H](CN3C2=O)C4(C)C)on1` [Example 109] cannot be ordered by IC50: under 100 nM for the first, under 100 nM for the second.

`CC(C)(C)OC(=O)N[C@H]1CCCC[C@H]2CNC(=O)[C@H]2C[C@@H](C#N)NC(=O)[C@@H]2CC3(CC3)CN2C1=O` [Example 105] and `CC1(C)[C@@H]2[C@H]3C(=O)N[C@H](C#N)C[C@@H]4C(=O)NC[C@@H]4CCCC[C@H](NC(=O)C4(C(F)(F)F)CC4)C(=O)N3C[C@@H]21` [Example 117] cannot be ordered by IC50: under 100 nM for the first, under 100 nM for the second.

Compared with `Cc1nc(C(=O)N[C@H]2CCCC[C@H]3CNC(=O)[C@H]3C[C@@H](C#N)NC(=O)[C@@H]3[C@@H]4[C@H](CN3C2=O)C4(C)C)cs1` [Example 113], `Cc1nc(C(=O)N[C@H]2CCCC[C@H]3CNC(=O)[C@H]3C[C@@H](C#N)NC(=O)[C@@H]3[C@@H]4[C@H](CN3C2=O)C4(C)C)co1` [Example 115] is lower in IC50: 100 to 1000 nM for the first, under 100 nM for the second.

`CC1(C)[C@@H]2[C@H]3C(=O)N[C@H](C#N)C[C@@H]4C(=O)NC[C@@H]4CCCC[C@H](NC(=O)c4ccc(F)c(C(F)(F)F)c4)C(=O)N3C[C@@H]21` [Example 116] and `CC1(C)[C@@H]2[C@H]3C(=O)N[C@H](C#N)C[C@@H]4C(=O)NC[C@@H]4CCCC[C@H](NC(=O)c4ccc(Cl)c(Cl)c4)C(=O)N3C[C@@H]21` [Example 120] cannot be ordered by IC50: under 100 nM for the first, under 100 nM for the second.

`CC1(C)[C@@H]2[C@H]3C(=O)N[C@H](C#N)C[C@@H]4C(=O)NC[C@@H]4CCCC[C@H](NC(=O)C45CC(C(F)(F)F)(C4)C5)C(=O)N3C[C@@H]21` [Example 119] and `Cc1cc(C(=O)N[C@H]2CCCC[C@H]3CNC(=O)[C@H]3C[C@@H](C#N)NC(=O)[C@@H]3[C@@H]4[C@H](CN3C2=O)C4(C)C)no1` [Example 122] cannot be ordered by IC50: under 100 nM for the first, under 100 nM for the second.

Work on `CC(C)(C(=O)N[C@H]1CCCC[C@H]2CNC(=O)[C@H]2C[C@@H](C#N)NC(=O)[C@@H]2[C@@H]3[C@H](CN2C1=O)C3(C)C)c1ccc(Cl)cc1` [Example 121] yielded an IC50 of under 100 nM.
